Assay results taken from paper PMC6826616, “Topical 2′-Hydroxyflavanone for Cutaneous Melanoma” (Cancers, 2019).
Read-outs that look alike come from different tables or passages of the source.

Columns and labels:
[1] = LC-MS/MS analysis of 2HF in serum after topical application; assay type: in vivo, C57BL/6 mice; settings: topical 12 mg 2HF/0.1 mL PLO gel each day for 8 weeks, blood within 2 h after final dosage
Experimental: C57BL/6 mice were administered either 0.1 mL PLO gel or 12 mg 2HF in 0.1 mL PLO gel topically each day for 8 weeks. On the last day, the blood was collected within 2 h after final dosage, and subjected to LC-MS/MS analyses according to established protocol. Briefly, serum from control and 2HF-treated mice was extracted twice with 500 µL ethyl acetate and the organic layers were collected and evaporated to dryness in a speed-vac. The residue was reconstituted in 40 µL methanol containing 0.1% formic acid (FA) for analysis. An LC-MS method was developed for the quantitative analysis of 2HF using an Agilent 6490 triple quadrupole coupled with an Agilent 1290 UHPLC system. In short, the binary pump delivered buffers A (0.1% FA in water) and buffer B (0.1% FA in acetonitrile) over 10 min with the following gradient: From 10% B to 20% B in 1 min, then ramp to 90% B at 6 min, 10% B at 8 min, 10% B at 8.5 min, column equilibration post analysis was 2 min. An Agilent Zorbax, 0.5 × 150 mm, 5 µm particle size was used for the separation at a flow rate of 50 µL/min.

SK-MEL-24 cells = assay: MTT cytotoxicity assay, SK-MEL-24; assay type: cell-based; settings: Homo sapiens
Excerpt: We studied the growth-inhibitory effects of 2HF on the B16-F0 and B16-F10 murine melanoma cell lines as well as on the SK-MEL-24 human melanoma cell line. B16-F10 and SK-MEL-24 have been shown in previous studies to be highly resistant to treatment and much more invasive than B16-F0 [32]. […] The absorption value measured upon reduction of the MTT dye by functional mitochondria is an indirect measure of cell number that cannot distinguish inhibited cell proliferation from apoptotic or necrotic cell death. By counting viable (trypan-blue dye-excluding) cells using a hemacytometer, we verified that 2HF did indeed cause cell death.
Figure 1 Mouse and human melanoma cell survival following 2′-hydroxyflavanone (2HF) treatment.
The IC50 of 2HF on B16-F0, B16-F10, and SK-MEL-24 cells was determined by MTT cytotoxicity assay. Cells were harvested and Trypan Blue dye exclusion test was used to determine the number of viable cells present in a cell suspension using a hemocytometer. The cell suspension was diluted to 5 × 10^4 cells/mL with Dulbecco’s Modified Eagle’s Medium (DMEM) complete medium and 5000 cells/well were plated in 96-well plates. After 24 h incubation at 37 °C, cells were treated with 2HF concentrations ranging from 0–200 µM (8 replicates per plate). After 48 or 72 h incubation, 40 µL of MTT (5 mg/mL) solution was added. After 4 h incubation, the plate was centrifuged at 700× g for 5 min and medium was aspirated completely. Then, 50 µL DMSO was added to each well to dissolve the purple precipitate on the rocking platform for about 15 min. The absorbance was then measured at 490 nm using a 96-well microplate reader (Spectramax Plus, Molecular Devices, Inc, San Jose, CA, USA).

2HF in serum [1]: 4.3 ± 0.4 µM
SMILES: O=C1CC(c2ccccc2O)Oc2ccccc21 (stereo not drawn) [2HF, 2′-hydroxyflavanone]
IC50 (SK-MEL-24 cells; MTT, 72 h, mean ±SD, n = 5, read-out: IC50 at 72 h (growth/survival)): 44 ± 6 µM | IC50 (SK-MEL-24 cells; Table 1, agent alone, read-out: IC50): 44.9 ± 1.67 µM
